Experimental data reported in US6362230B1, “Sulphonamide derivatives” (Eli Lilly and Company, priority 1998, dated 2002).

Molecular target: T1, human GluR4B receptor (Homo sapiens, UniProt P48058)
T1 construct: expressed in transfected cells
Assay: potentiation of agonist-induced excitability of human GluR4B receptor expressed in HEK 293 cells
Type: cell-based
Description: The ability of compounds of formula I or formula XVII to potentiate glutamate receptor-mediated response may be determined using fluorescent calcium indicator dyes (Molecular Probes, Eugene, Oreg., Fluo-3) and by measuring glutamate-evoked […] of calcium into GluR4 transfected HEK293 cells, as described in more detail below.
In one test, 96 well plates containing confluent monolayers of HEK cells stably expressing human GluR4B (obtained as described in European Patent Application Publication Number EP-A1-583917) are prepared. The tissue culture medium in the wells is then discarded, and the wells are each washed once with 200 μl of buffer (glucose, 10 mM, sodium chloride, 138 mM, magnesium chloride, 1 mM, potassium chloride, 5 mM, calcium chloride, 5 mM, N-[2-hydroxyethyl]piperazine-N-[2-ethanesulfonic acid], 10 mM, to pH 7.1 to 7.3). […]
Each test is then performed as follows. […] A second fluorescent reading is taken after 5 minutes incubation. 15 μl of 400 μM glutamate solution is then added to each well (final glutamate concentration 100 μM), and a third reading is taken. The activities of test compounds and cyclothiazide solutions are determined by subtracting the second from the third reading (fluorescence due to addition of glutamate in the presence or absence of test compound or cyclothiazide) and are expressed relative to enhance fluorescence produced by 100 μM cyclothiazide.

T1 sequence (P48058 21-902): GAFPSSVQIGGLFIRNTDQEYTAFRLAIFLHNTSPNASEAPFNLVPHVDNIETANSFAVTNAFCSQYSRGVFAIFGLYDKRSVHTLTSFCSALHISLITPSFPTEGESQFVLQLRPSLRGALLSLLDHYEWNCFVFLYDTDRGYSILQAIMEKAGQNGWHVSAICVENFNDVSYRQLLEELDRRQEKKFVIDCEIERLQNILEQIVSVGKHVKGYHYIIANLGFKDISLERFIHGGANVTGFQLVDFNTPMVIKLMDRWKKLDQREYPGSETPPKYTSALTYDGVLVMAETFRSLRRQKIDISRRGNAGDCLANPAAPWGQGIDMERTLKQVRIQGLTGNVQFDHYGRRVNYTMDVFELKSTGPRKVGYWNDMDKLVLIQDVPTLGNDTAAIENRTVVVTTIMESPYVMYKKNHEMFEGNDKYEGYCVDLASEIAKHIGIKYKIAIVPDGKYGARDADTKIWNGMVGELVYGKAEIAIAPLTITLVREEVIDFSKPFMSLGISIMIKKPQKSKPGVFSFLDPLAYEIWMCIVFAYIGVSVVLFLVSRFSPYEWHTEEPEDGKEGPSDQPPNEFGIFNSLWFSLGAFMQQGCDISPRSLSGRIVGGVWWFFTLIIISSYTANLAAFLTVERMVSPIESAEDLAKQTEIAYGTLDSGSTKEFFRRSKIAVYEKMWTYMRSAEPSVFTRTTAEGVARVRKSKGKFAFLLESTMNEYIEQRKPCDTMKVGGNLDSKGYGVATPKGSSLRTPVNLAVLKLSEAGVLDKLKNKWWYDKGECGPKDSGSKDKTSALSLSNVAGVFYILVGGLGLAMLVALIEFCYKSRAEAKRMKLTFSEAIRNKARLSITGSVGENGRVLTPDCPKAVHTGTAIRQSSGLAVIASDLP

With `NS(=O)(=O)c1cc2c(cc1Cl)NC(C1CC3C=CC1C3)NS2(=O)=O` (stereo not shown) [cyclothiazide] the “potentiation of agonist-induced excitability of human GluR4B receptor” value was “potentiate agonist-induced excitability”.
